Experimental data reported in patent US7723363B2, “2-pyridinylethylcarboxamide derivatives and their use as fungicides” (Bayer Cropscience SA, priority 2004, dated 2010).

Legend:
[1] = test system: Botrytis cinerea; assay: Effectiveness on Botrytis cinerea; assay type: in vivo; details: at 330 ppm; comparison compounds of WO 01/11965
[2] = test system: Alternaria brassicae; assay: In vivo test on Alternaria brassicae (leaf spot of crucifers); details: at 330 ppm; comparison compounds of WO 01/11965
Method: The active ingredient tested is prepared by potter homogenisation in a concentrated suspension type formulation at 100 g/l. This suspension is then diluted with water to obtain the desired active material concentration.
Radish plants (Pernot variety) in starter cups, sown on a 50/50 peat soil-pozzolana substrate and grown at 18-20° C., are treated at the cotyledon stage by spraying with the aqueous suspension described above.
Plants, used as controls, are treated with an aqueous solution not containing the active material.
After 24 hours, the plants are contaminated by spraying them with an aqueous suspension of Alternaria brassicae spores (40,000 spores per cm^3). The spores are collected from a 12-13-day-old culture.
The contaminated radish plants are incubated for 6-7 days at about 18° C., under a humid atmosphere.
Grading is carried out 6 to 7 days after the contamination, in comparison with the control plants.

[3] = test system: Peronospora parasitica; assay: Efficacy against Peronospora parasitica; assay type: in vivo; details: at 330 ppm; comparison compound of WO 01/11965

Compound	effectiveness on Botrytis cinerea [1]	melting point	effectiveness on Alternaria brassicae [2]	efficacy against Peronospora parasitica [3]
CCNC(=O)C(Cc1ncc(C(F)(F)F)cc1Cl)NC(=O)c1ccccc1Br (stereo not shown) [compound 310, N-{1-ethylcarbamoyl-2-[3-chloro-5-(trifluoromethyl)-2-pyridinyl]ethyl}-2-bromobenzamide]	zero effectiveness			
O=C(NCC(C(=O)O)c1nc(F)c(Cl)cc1F)c1sccc1I (stereo not shown) [Compound A-3]		192 °C		
CNC(=O)C(Cc1ncc(C(F)(F)F)cc1Cl)NC(=O)c1ccccc1 (stereo not shown) [compound 314, N-{1-methylcarbamoyl-2-[3-chloro-5-(trifluoromethyl)-2-pyridinyl]ethyl}-benzamide]	zero effectiveness			
O=C(Cc1cccs1)NCc1ncc(C(F)(F)F)cc1Cl [compound 101, N-{[3-chloro-5-(trifluoromethyl)-2-pyridinyl]methyl}-5-thienylacetamide]	no efficacy		poor efficacy	no efficacy
CCNC(=O)C(Cc1ncc(C(F)(F)F)cc1Cl)NC(=O)c1cccc([N+](=O)[O-])c1 (stereo not shown) [compound 307, N-{1-ethylcarbamoyl-2-[3-chloro-5-(trifluoromethyl)-2-pyridinyl]ethyl}-3-nitrobenzamide]	zero effectiveness		poor effectiveness	
CCNC(=O)C(Cc1ncc(C(F)(F)F)cc1Cl)NC(=O)c1ccc(Cl)cc1 (stereo not shown) [compound 306, N-{1-ethylcarbamoyl-2-[3-chloro-5-(trifluoromethyl)-2-pyridinyl]-ethyl}-4-chlorobenzamide]	zero effectiveness			
CNC(=O)C(Cc1ncc(C(F)(F)F)cc1Cl)NC(=O)c1ccc(-c2ccccc2)cc1 (stereo not shown) [compound 316, N-{1-methylcarbamoyl-2-[3-chloro-5-(trifluoromethyl)-2-pyridinyl]-ethyl}-4-phenylbenzamide]	zero effectiveness		poor effectiveness	
CNC(=O)C(Cc1ncc(C(F)(F)F)cc1Cl)NC(=O)c1ccc(OC)cc1 (stereo not shown) [compound 315, N-{1-methylcarbamoyl-2-[3-chloro-5-(trifluoromethyl)-2-pyridinyl]ethyl}-4-methoxybenzamide]	zero effectiveness			
CCNC(=O)C(Cc1ncc(C(F)(F)F)cc1Cl)NC(=O)c1ccccc1 (stereo not shown) [compound 304, N-{1-ethylcarbamoyl-2-[3-chloro-5-(trifluoromethyl)-2-pyridinyl]-ethyl}-benzamide]	zero effectiveness			
